# Patent publication US20240199676A1, “ANTIVIRAL COMPOUNDS AND METHODS OF MAKING AND USING THE SAME” (Gilead Sciences, Inc., priority 2022, published 2024)
# Legend:
# [1] = tested on: Respiratory syncytial virus recombinant with luciferase (RSV-Luc5) in NHBE cells; test: NHBE RSV-Luc5 384-well Assay (RSV FLUC NHBE 384 V2, Ex. W); type: cell-based; conditions: human respiratory syncytial virus, 72 h, read-out: EC50 RSV FLUC NHBE 384 V2 (per Ex. W)
# Text: Example W: NHBE RSV-Luc5 384-well Assay (EC50 RSVFLUC NHBE-384)
# Normal Human Bronchial Epithelial (NHBE) cells were purchased from Lonza (Walkersville, MD Cat #CC2540) and maintained in BEGM Bronchial Epithelial Cell Growth Medium BulletKit (Lonza CC-3170).
# Cells were thawed, expanded, and were used for experiments at passage 2. Respiratory syncytial virus recombinant with luciferase (RSV-Luc5) (≥1×10^7 Infectious Units/mL (IU/mL) determined by TCID50) was purchased from Microbiologics (Saint Cloud, MN). Viral replication was determined in NHBE cells in the following manner.
# Compounds are prepared in 100% DMSO in 384-well polypropylene plates (Greiner, Monroe, NC, Cat #784201) with 8 compounds per plate in grouped replicates of 4 at 10 serially diluted concentrations (1:3). The serially diluted compounds were transferred to low dead volume Echo plates (Labcyte, Sunnyvale, CA, Cat #LP-0200).
# The test compounds were spotted to 384-well assay plates (Greiner, Monroe, NC, Cat#781091) at 200 nL per well using an Echo acoustic dispenser (Labcyte, Sunnyvale, CA). NHBE cells were harvested and suspended in BEGM Bronchial Epithelial Cell Growth Medium BulletKit and seeded to the pre-spotted assay plates at 5,000 cells per well in 30 μL. RSV-Luc5 virus was diluted in BEGM Bronchial Epithelial Cell Growth Medium BulletKit at 500,000 Infectious Units (IU) per mL and 10 μL per well was added to the assay plates containing cells and compounds, for an MOI of 1. The assay plates were incubated for 3 days at 37° C. and 5% CO2. At the end of incubation, One-Glo reagent (Promega, Madison, WI, Cat #E6120) was prepared. The assay plates and One-Glo reagent were equilibrated to room temperature for at least 15 minutes. 40 μL per well of One-Glo reagent was added and the plates were incubated at room temperature for 15 minutes before reading the luminescence signal on an EnVision multimode plate reader (Perkin Elmer, Waltham, MA). Remdesivir was used as positive control and DMSO was used as negative control. Values were normalized to the positive and negative controls (as 0% and 100% replication, respectively) and data was fitted using non-linear regression analysis by Gilead's dose response tool. The EC50 value for each compound was defined as the concentration reducing the viral replication by 50%.
# [2] = GI S9 stability (Ex. Z), human intestinal S9; type: in vitro ADME; conditions: pooled intestinal S9 fractions; human intestinal S9, 1.0 mg/mL protein, 2 μM substrate, pH 7.4; read-out: GIS9 Human T½ (per Ex. Z)
# Protocol: (§1) Example Z: GI S9 stability data:
# (§2) Stock solutions of test compounds in dimethyl sulfoxide (DMSO) having a final concentration of 10 mM were prepared and used in all experiments. Sekisui XenoTech (Kansas City, KS) provided pooled intestinal S9 fractions. All other chemicals were purchased from Sigma-Aldrich (St. Louis, MO) or VWR (West Chester, PA). Internal Standard/Quench (IS/Q) used to stop reactions was 100 nM labetalol in (by volume) methanol (10%) and acetonitrile (90%).
# (§3) Stability in Intestinal S9 Fractions: Duplicate aliquots of test compound or positive control substrate were added to S9 stock diluted with phosphate buffered saline (137 mM NaCl, 2.7 mM KCl, 10 mM phosphate buffer), pH 7.4, to obtain a protein concentration of 1.0 mg/mL. The metabolic reactions were initiated by the addition of the substrates to the S9 reaction mixture to a final concentration of 2 μM. At 0, 10, 20, 30, 60 and 120 min, 25 μL aliquots of the reaction mixture were transferred to plates containing 225 μl of IS/Q solution. After quenching, the plates were centrifuged at 3000×g for 30 minutes. 150 μL aliquots of each supernatant were dried down then reconstituted with 300 μL water. Aliquots (10 μL) of the prepared samples were analyzed on a Thermo Q-Exactive mass spectrometer as described below.
# (§4) Liquid Chromatography—Mass Spectrometry: Quantification of test compounds and control substrate was performed by analyte/internal standard peak area ratio (PAR) values measured on a Thermo Q-Exactive mass spectrometer coupled to a Dionex UltiMate 3000 HPLC with a Leap Technologies HTC PAL autosampler. The column used for analysis was a Waters Acquity BEH C18 (1.7 μm particle size, 2.1×50 mm). Mobile phase A consisted of 0.1% (v/v) formic acid in water. Mobile phase B consisted of 0.1% (v/v) formic acid in acetonitrile. Elution of analytes was achieved by a series of linear gradients varying the proportions of A and B. The mass spectrometer was calibrated on a weekly basis and mass tolerance of 5 ppm was used.
# (§5) Metabolic stabilities in S9 fractions were determined by measuring the rates of disappearance of test compound and positive control substrate.
# (§6) Data (% of substrate remaining) were plotted on a semi-log scale and fitted using an exponential decline model:
# (§7) Where Ct—% of substrate remaining at time=t; C0—% of substrate remaining at time=0; t—time; T½—half-life The Half-life (T½) is determined by the following equation: […]
# (§8) Assuming a first-order reaction, the slope (k) is extrapolated from the aforementioned plotted data.
# [3] = GI S9 stability (Ex. Z), rat intestinal S9; type: in vitro ADME; conditions: pooled intestinal S9 fractions; rat intestinal S9, 1.0 mg/mL protein, 2 μM substrate, pH 7.4; read-out: GIS9 Rat T½ (per Ex. Z)
# Protocol: as §1, §2, §3, §4, §5, §6, §7, §8
SMILES,EC50 [1],half-life at 2 μM [2],half-life at 2 μM [3]
"CC(C)C(=O)OC[C@@]1(C#N)O[C@@H](c2ccc3c(N)ncnn23)[C@H](O)[C@@H]1O [Compound 1, ((2R,3S,4R,5S)-5-(4-aminopyrrolo[2,1-f][1,2,4]triazin-7-yl)-2-cyano-3,4-dihydroxytetrahydrofuran-2-yl)methyl isobutyrate]",14.4 µM,38 min,11 min
"N#C[C@]1(COC(=O)c2ccccc2)O[C@@H](c2ccc3c(N)ncnn23)[C@H](O)[C@@H]1O [Compound 2, ((2R,3S,4R,5S)-5-(4-aminopyrrolo[2,1-f][1,2,4]triazin-7-yl)-2-cyano-3,4-dihydroxytetrahydrofuran-2-yl)methyl benzoate]",9.31 µM,27 min,8 min
"CC(C)CC(=O)OC[C@@]1(C#N)O[C@@H](c2ccc3c(N)ncnn23)[C@H](O)[C@@H]1O [Compound 3, ((2R,3S,4R,5S)-5-(4-aminopyrrolo[2,1-f][1,2,4]triazin-7-yl)-2-cyano-3,4-dihydroxytetrahydrofuran-2-yl)methyl 3-methylbutanoate]",8.55 µM,42 min,12 min
"CC(=O)OC[C@@]1(C#N)O[C@@H](c2ccc3c(N)ncnn23)[C@H](O)[C@@H]1O [Compound 4, ((2R,3S,4R,5S)-5-(4-aminopyrrolo[2,1-f][1,2,4]triazin-7-yl)-2-cyano-3,4-dihydroxytetrahydrofuran-2-yl)methyl acetate]",10.7 µM,23 min,9 min
"CCC(=O)OC[C@@]1(C#N)O[C@@H](c2ccc3c(N)ncnn23)[C@H](O)[C@@H]1O [Compound 5, ((2R,3S,4R,5S)-5-(4-aminopyrrolo[2,1-f][1,2,4]triazin-7-yl)-2-cyano-3,4-dihydroxytetrahydrofuran-2-yl)methyl propionate]",7.78 µM,29 min,10 min
"CCCC(=O)OC[C@@]1(C#N)O[C@@H](c2ccc3c(N)ncnn23)[C@H](O)[C@@H]1O [Compound 6, ((2R,3S,4R,5S)-5-(4-aminopyrrolo[2,1-f][1,2,4]triazin-7-yl)-2-cyano-3,4-dihydroxytetrahydrofuran-2-yl)methyl butyrate]",7.69 µM,8 min,4 min
"N#C[C@]1(COC(=O)C2CC2)O[C@@H](c2ccc3c(N)ncnn23)[C@H](O)[C@@H]1O [Compound 7, ((2R,3S,4R,5S)-5-(4-aminopyrrolo[2,1-f][1,2,4]triazin-7-yl)-2-cyano-3,4-dihydroxytetrahydrofuran-2-yl)methyl cyclopropanecarboxylate]",10.7 µM,292 min,26 min
"N#C[C@]1(COC(=O)C2CCC2)O[C@@H](c2ccc3c(N)ncnn23)[C@H](O)[C@@H]1O [Compound 8, ((2R,3S,4R,5S)-5-(4-aminopyrrolo[2,1-f][1,2,4]triazin-7-yl)-2-cyano-3,4-dihydroxytetrahydrofuran-2-yl)methyl cyclobutanecarboxylate]",10.1 µM,4 min,2 min
"CCC(CC)C(=O)OC[C@@]1(C#N)O[C@@H](c2ccc3c(N)ncnn23)[C@H](O)[C@@H]1O [Compound 9, ((2R,3S,4R,5S)-5-(4-aminopyrrolo[2,1-f][1,2,4]triazin-7-yl)-2-cyano-3,4-dihydroxytetrahydrofuran-2-yl)methyl 2-ethylbutanoate]",9.47 µM,55 min,23 min
"CC(C)C(=O)O[C@H]1[C@H](c2ccc3c(N)ncnn23)O[C@](C#N)(COC(=O)c2ccccc2)[C@H]1O [Compound 22, ((2R,3S,4R,5S)-5-(4-aminopyrrolo[2,1-f][1,2,4]triazin-7-yl)-2-cyano-3-hydroxy-4-(isobutyryloxy)tetrahydrofuran-2-yl)methyl benzoate]",11.3 µM,–,–
"CC(=O)OC[C@@]1(C#N)O[C@@H](c2ccc3c(NC(=O)C(C)C)ncnn23)[C@H](O)[C@@H]1O [Compound 23, ((2R,3S,4R,5S)-2-cyano-3,4-dihydroxy-5-(4-isobutyramidopyrrolo[2,1-f][1,2,4]triazin-7-yl)tetrahydrofuran-2-yl)methyl acetate]",14.9 µM,–,–
"CC1(C(=O)OC[C@@]2(C#N)O[C@@H](c3ccc4c(N)ncnn34)[C@H](O)[C@@H]2O)CCC1 [Compound 24, ((2R,3S,4R,5S)-5-(4-aminopyrrolo[2,1-f][1,2,4]triazin-7-yl)-2-cyano-3,4-dihydroxytetrahydrofuran-2-yl)methyl 1-methylcyclobutane-1-carboxylate]",10.8 µM,–,–
"CC(C)(C)CC(=O)Nc1ncnn2c([C@@H]3O[C@](C#N)(COC(=O)CC(C)(C)C)[C@@H](O)[C@H]3O)ccc12 [Compound 26, ((2R,3S,4R,5S)-2-cyano-5-(4-(3,3-dimethylbutanamido)pyrrolo[2,1-f][1,2,4]triazin-7-yl)-3,4-dihydroxytetrahydrofuran-2-yl)methyl 3,3-dimethylbutanoate]",26.6 µM,–,–
"CCC(C)(C)CC(=O)OC[C@@]1(C#N)O[C@@H](c2ccc3c(N)ncnn23)[C@H](O)[C@@H]1O [Compound 27, ((2R,3S,4R,5S)-5-(4-aminopyrrolo[2,1-f][1,2,4]triazin-7-yl)-2-cyano-3,4-dihydroxytetrahydrofuran-2-yl)methyl 3,3-dimethylpentanoate]",12.2 µM,–,–
"CC(C)(CF)C(=O)OC[C@@]1(C#N)O[C@@H](c2ccc3c(N)ncnn23)[C@H](O)[C@@H]1O [Compound 29, ((2R,3S,4R,5S)-5-(4-aminopyrrolo[2,1-f][1,2,4]triazin-7-yl)-2-cyano-3,4-dihydroxytetrahydrofuran-2-yl)methyl 3-fluoro-2,2-dimethylpropanoate]",13 µM,–,–
"[H]/N=c1/c2ccc([C@@H]3O[C@](C#N)(CO)[C@@H](O)[C@H]3O)n2ncn1COC(=O)C(C)C [Compound 34, (7-((2S,3R,4S,5R)-5-cyano-3,4-dihydroxy-5-(hydroxymethyl)tetrahydrofuran-2-yl)-4-iminopyrrolo[2,1-f][1,2,4]triazin-3(4H)-yl)methyl isobutyrate]",39.1 µM,–,–
"CC[C@@H](C)C(=O)OC[C@@]1(C#N)O[C@@H](c2ccc3c(N)ncnn23)[C@H](O)[C@@H]1O [Compound 37, ((2R,3S,4R,5S)-5-(4-aminopyrrolo[2,1-f][1,2,4]triazin-7-yl)-2-cyano-3,4-dihydroxytetrahydrofuran-2-yl)methyl (R)-2-methylbutanoate]",9.93 µM,–,–
